In assay [1] the target is T1, human GluN1/GluN2B NMDA receptors (Homo sapiens, UniProt Q05586+Q13224).
T1 construct: expressed in transfected cells
In words: Cell-based calcium flux (FLIPR) assay on cloned human NR1/NR2B ion channels expressed in mammalian cells (standard and HTS buffer variants).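 Note: stable Tet-On inducible cell line, Ca2+ influx triggered by glutamate at about EC40 plus 10 µM glycine, fluorescent dye read-out over 5 min, normalized to control wells.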 In general terms: Calcium flux is commonly read through the fluorescence of an indicator in the cells.

In assay [2] the target is T2, human GluN1/GluN2B NMDA receptors (Homo sapiens, UniProt Q13224).
T2 construct: expressed in transfected cells
The assay is described as above. Conditions: standard assay buffer (0.5 mM MgCl2 dye loading; 137 mM NaCl, 4 mM KCl assay buffer), human GluN1/GluN2B cells, read-out: NR2B IC50 (μM) standard assay.

Where [3] appears, read: standard assay buffer (0.5 mM MgCl2 dye loading; 137 mM NaCl, 4 mM KCl assay buffer), human GluN1/GluN2B cells, read-out: NR2B IC50 (μM) standard assay.
Setting [4] is: standard assay buffer (0.5 mM MgCl2 in dye loading buffer; 137 mM NaCl, 4 mM KCl in assay buffer), human GluN1/GluN2B, read-out: NR2B IC50 (μM) standard assay.
Setting [5] is: HTS assay buffer (1.5 mM MgCl2 dye loading; 150 mM NaCl, 3 mM KCl assay buffer), human GluN1/GluN2B cells, read-out: NR2B IC50 (μM) HTS assay.

Each structure is given as a SMILES string. Read-outs that look alike come from different tables or passages of the source.

T2 sequence (Q13224 27-1484, other chains not shown): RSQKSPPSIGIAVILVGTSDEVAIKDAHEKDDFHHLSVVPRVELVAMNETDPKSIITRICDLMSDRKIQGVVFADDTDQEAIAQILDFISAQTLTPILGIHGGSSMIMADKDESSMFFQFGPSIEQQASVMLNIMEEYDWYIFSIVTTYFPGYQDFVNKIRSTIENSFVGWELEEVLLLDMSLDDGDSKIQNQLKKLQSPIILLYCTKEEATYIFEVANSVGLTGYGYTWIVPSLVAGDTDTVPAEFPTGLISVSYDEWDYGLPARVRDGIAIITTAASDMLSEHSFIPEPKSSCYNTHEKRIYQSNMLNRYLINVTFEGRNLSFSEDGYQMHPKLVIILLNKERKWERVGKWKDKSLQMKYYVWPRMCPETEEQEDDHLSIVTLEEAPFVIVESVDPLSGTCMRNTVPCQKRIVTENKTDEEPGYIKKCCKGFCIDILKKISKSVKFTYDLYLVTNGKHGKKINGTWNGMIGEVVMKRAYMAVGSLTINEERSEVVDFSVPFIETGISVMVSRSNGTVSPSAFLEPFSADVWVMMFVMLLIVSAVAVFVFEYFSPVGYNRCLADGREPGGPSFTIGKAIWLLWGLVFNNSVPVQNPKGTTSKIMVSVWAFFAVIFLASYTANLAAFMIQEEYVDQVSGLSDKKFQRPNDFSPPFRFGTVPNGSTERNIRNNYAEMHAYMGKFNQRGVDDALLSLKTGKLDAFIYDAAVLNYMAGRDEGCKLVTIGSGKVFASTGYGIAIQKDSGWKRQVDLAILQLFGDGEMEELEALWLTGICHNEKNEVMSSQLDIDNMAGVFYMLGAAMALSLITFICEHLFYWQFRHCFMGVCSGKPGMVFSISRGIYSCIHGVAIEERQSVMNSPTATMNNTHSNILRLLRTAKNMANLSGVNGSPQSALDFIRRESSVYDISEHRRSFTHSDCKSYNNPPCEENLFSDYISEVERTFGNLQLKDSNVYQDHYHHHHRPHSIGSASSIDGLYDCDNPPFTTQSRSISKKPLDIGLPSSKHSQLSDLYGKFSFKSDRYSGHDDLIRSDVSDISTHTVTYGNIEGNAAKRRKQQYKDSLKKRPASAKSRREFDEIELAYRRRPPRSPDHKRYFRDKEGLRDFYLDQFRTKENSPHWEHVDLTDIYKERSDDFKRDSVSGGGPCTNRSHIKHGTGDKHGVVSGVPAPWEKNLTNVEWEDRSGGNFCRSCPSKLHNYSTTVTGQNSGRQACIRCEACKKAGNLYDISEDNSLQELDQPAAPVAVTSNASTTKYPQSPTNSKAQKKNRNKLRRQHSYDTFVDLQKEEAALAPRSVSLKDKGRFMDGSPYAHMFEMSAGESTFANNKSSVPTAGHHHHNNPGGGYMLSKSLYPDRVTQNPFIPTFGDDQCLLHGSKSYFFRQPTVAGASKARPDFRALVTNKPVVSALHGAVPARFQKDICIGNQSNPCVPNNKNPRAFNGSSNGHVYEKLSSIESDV
T1 sequence (Q13224 27-1484, other chains not shown): as above

Regarding `O=c1[nH]c2ncc(-c3cccc(C(F)(F)F)c3)cc2n1CC1CCCCO1` (racemic) [Example 218, (R/S)-1-(Tetrahydropyran-2-ylmethyl)-6-[3-(trifluoromethyl)phenyl]-3H-imidazo[4,5-b]pyridin-2-one], the IC50 in assay [1] (setting [3]) came to 0.552 µM. In the case of `Cc1c(-c2cnc3c(c2)n(CC2CCO2)c(=O)n3C)cccc1C(F)(F)F` (racemic) [Example 398, (R/S)-3-Methyl-6-[2-methyl-3-(trifluoromethyl)phenyl]-1-(oxetan-2-ylmethyl)imidazo[4,5-b]pyridin-2-one], the IC50 in assay [1] (setting [4]) is 2.84 µM. Turning to `O=c1[nH]c2ncc(-c3ccc(F)c(C(F)(F)F)c3)cc2n1CC1CCO1` (racemic) [Example 271, (R/S)-6-[4-Fluoro-3-(trifluoromethyl)phenyl]-1-(oxetan-2-ylmethyl)-3H-imidazo[4,5-b]pyridin-2-one], the IC50 in assay [1] (setting [3]) stood at 0.046 µM. Same read-out and setting: the result for `O=c1[nH]c2ncc(-c3cccc(C(F)(F)F)c3)cc2n1CC1CC1(F)F` (racemic) [Example 225, (R/S)-1-[(2,2-Difluorocyclopropyl)methyl]-6-[3-(trifluoromethyl)phenyl]-3H-imidazo[4,5-b]pyridin-2-one] reads 0.4 µM; that for `[2H]C([2H])([2H])OCc1ccc(-c2cnc3c(c2)n(CC(=O)N(C)C)c(=O)n3C)s1` [Example 121, N,N-Dimethyl-2-[3-methyl-2-oxo-6-[5-(trideuteriomethoxymethyl)-2-thienyl]imidazo[4,5-b]pyridin-1-yl]acetamide], 2.96 µM.

As for `Cn1c(=O)n(CC2CCO2)c2cc(-c3cccc(C(F)(F)F)c3F)cnc21` (racemic) [Example 396, (R/S)-6-[2-Fluoro-3-(trifluoromethyl)phenyl]-3-methyl-1-(oxetan-2-ylmethyl)imidazo[4,5-b]pyridin-2-one], the IC50 in assay [1] (setting [4]) was 0.135 µM.

Turning to `O=c1[nH]c2ncc(-c3cccc(C(F)(F)F)c3)cc2n1CC1CCO1` (single isomer, unassigned) [Example 224, (S*)-1-(Oxetan-2-ylmethyl)-6-[3-(trifluoromethyl)phenyl]-3H-imidazo[4,5-b]pyridin-2-one], in assay [1] (setting [3]), the 50% inhibitory concentration (IC50) was 0.054 µM. In the case of `Cn1c(=O)n(CC2CCN2)c2cc(-c3cccc(C(F)(F)F)c3)cnc21` (racemic) [Example 245, (R/S)-1-(Azetidin-2-ylmethyl)-3-methyl-6-[3-(trifluoromethyl)phenyl]imidazo[4,5-b]pyridin-2-one], the IC50 in assay [1] (setting [3]) came out at 0.409 µM. In the case of `CCC(O)Cn1c(=O)[nH]c2ncc(-c3cccc(C)c3)cc21` (racemic) [Example 335, (R/S)-1-(2-Hydroxybutyl)-6-(m-tolyl)-3H-imidazo[4,5-b]pyridin-2-one], the IC50 in assay [1] (setting [4]) came to 0.054 µM. On the same count and under the same terms, the result for `CCC(O)Cn1c(=O)[nH]c2ncc(-c3cccc(C(F)(F)F)c3)cc21` (racemic) [Example 337, (R/S)-1-(2-Hydroxybutyl)-6-[3-(trifluoromethyl)phenyl]-3H-imidazo[4,5-b]pyridin-2-one] reads 0.119 µM.

In the case of `O=c1[nH]c2ncc(-c3ccccc3)cc2n1CC1CCN1` (racemic) [Example 265, (R/S)-1-(Azetidin-2-ylmethyl)-6-phenyl-3H-imidazo[4,5-b]pyridin-2-one], the IC50 in assay [1] (setting [3]) came to 0.397 µM.

On to `[2H]C([2H])([2H])OCc1ccc(-c2cnc3c(c2)n(CC(=O)N2CCC2)c(=O)n3C)s1` [Example 122, 1-[2-(Azetidin-1-yl)-2-oxo-ethyl]-3-methyl-6-[5-(trideuteriomethoxymethyl)-2-thienyl]imidazo[4,5-b]pyridin-2-one], for which the IC50 in assay [1] (setting [3]) worked out at 1.22 µM. In the case of `Cc1cc(-c2cnc3c(c2)n(CC(=O)N2CCC2)c(=O)n3C)ccc1F` [Example 410, 1-[2-(Azetidin-1-yl)-2-oxo-ethyl]-6-(4-fluoro-3-methyl-phenyl)-3-methyl-imidazo[4,5-b]pyridin-2-one], the concentration for half-maximal inhibition (IC50) in assay [1] (setting [4]) was 0.013 µM. On to `CC(C(=O)N1CCC1)n1c(=O)[nH]c2ncc(-c3cccc(C(F)(F)F)c3)cc21` (racemic) [Example 203, (R/S)-1-[2-(Azetidin-1-yl)-1-methyl-2-oxo-ethyl]-6-[3-(trifluoromethyl)phenyl]-3H-imidazo[4,5-1D]pyridin-2-one], for which the half-maximal inhibitory concentration (IC50) in assay [1] (setting [3]) amounted to 1.1 µM. As to `Cc1cc(-c2cnc3c(c2)n(CC2CCO2)c(=O)n3C)ccc1F` (racemic) [Example 395, (R/S)-6-(4-Fluoro-3-methyl-phenyl)-3-methyl-1-(oxetan-2-ylmethyl)imidazo[4,5-b]pyridin-2-one], in assay [1] (setting [4]), the IC50 turned out to be 1.2 µM. As to `O=c1[nH]c2ncc(-c3cccc(C(F)(F)F)c3)cc2n1CC1CNCCO1` (racemic) [Example 217, (R/S)-1-(Morpholin-2-ylmethyl)-6-[3-(trifluoromethyl)phenyl]-3H-imidazo[4,5-b]pyridin-2-one], the half-inhibitory concentration (IC50) in assay [1] (setting [3]) was 6.49 µM. For `CC(C)C(O)Cn1c(=O)[nH]c2ncc(-c3cccc(C(F)(F)F)c3)cc21` (racemic) [Example 338, (R/S)-1-(2-Hydroxy-3-methyl-butyl)-6-[3-(trifluoromethyl)phenyl]-3H-imidazo[4,5-b]pyridin-2-one], the IC50 in assay [1] (setting [4]) worked out at 0.687 µM. Turning to `O=c1[nH]c2ncc(-c3cccc(C(F)(F)F)c3)cc2n1CC1CCN1` (racemic) [Example 263, (R/S)-1-(Azetidin-2-ylmethyl)-6-[3-(trifluoromethyl)phenyl]-3H-imidazo[4,5-b]pyridin-2-one], the half-inhibitory concentration (IC50) in assay [1] (setting [3]) came to 0.063 µM. Take `CCC(O)Cn1c(=O)[nH]c2ncc(-c3ccc(F)cc3C)cc21` (single isomer, unassigned) [Example 43, (R*)-6-(4-Fluoro-2-methyl-phenyl)-1-(2-hydroxybutyl)-3H-imidazo[4,5-b]pyridin-2-one]: the IC50 in assay [1] (setting [5]) came to 3.49 µM.

As to `Cn1c(=O)n(CC2CCO2)c2cc(-c3cccc(Cl)c3)cnc21` (racemic) [Example 397, (R/S)-6-(3-Chlorophenyl)-3-methyl-1-(oxetan-2-ylmethyl)imidazo[4,5-b]pyridin-2-one], the concentration for half-maximal inhibition (IC50) in assay [1] (setting [4]) was 0.228 µM.

For `O=c1[nH]c2ncc(-c3ccc(F)cc3)cc2n1CC1CCN1` (racemic) [Example 266, (R/S)-1-(Azetidin-2-ylmethyl)-6-(4-fluorophenyl)-3H-imidazo[4,5-b]pyridin-2-one], the concentration for half-maximal inhibition (IC50) in assay [1] (setting [3]) is 0.173 µM. On to `CCC(O)Cn1c(=O)[nH]c2ncc(-c3ccc(F)cc3C)cc21` (single isomer, unassigned) [Example 44, (S*)-6-(4-Fluoro-2-methyl-phenyl)-1-(2-hydroxybutyl)-3H-imidazo[4,5-b]pyridin-2-one], for which, in assay [1] (setting [5]), the IC50 stood at 0.325 µM. As for `CCC(O)Cn1c(=O)n(C)c2ncc(-c3ccc(F)c(F)c3)cc21` (racemic) [Example 333, (R/S)-6-(3,4-Difluorophenyl)-1-(2-hydroxybutyl)-3-methyl-imidazo[4,5-b]pyridin-2-one], the IC50 in assay [1] (setting [4]) worked out at 1.9 µM. `CC(C(=O)NC1CC1)n1c(=O)[nH]c2ncc(-c3cccc(C(F)(F)F)c3)cc21` (racemic) [Example 202, (R/S)—N-Cyclopropyl-2-[2-oxo-6-[3-(trifluoromethyl)phenyl]-3H-imidazo[4,5-b]pyridin-1-yl]propanamide]: the IC50 in assay [1] (setting [3]) came out at 7.32 µM. In the case of `COc1ccc(-c2cnc3[nH]c(=O)n(CC(=O)C(C)(C)C)c3c2)cc1F` [Example 609, 1-(3,3-Dimethyl-2-oxo-butyl)-6-(3-fluoro-4-methoxy-phenyl)-3H-imidazo[4,5-b]pyridin-2-one], the concentration for half-maximal inhibition (IC50) in assay [1] (setting [4]) was determined as 0.263 µM.

As for `CCC(O)Cn1c(=O)[nH]c2ncc(-c3ccc(F)c(C)c3F)cc21` (racemic) [Example 336, (R/S)-6-(2,4-Difluoro-3-methyl-phenyl)-1-(2-hydroxybutyl)-3H-imidazo[4,5-b]pyridin-2-one], the IC50 in assay [1] (setting [4]) amounted to 0.015 µM.

As to `COc1ccc(-c2cnc3[nH]c(=O)n(CC(=O)C(C)(C)C)c3c2)cc1` [Example 601, 1-(3,3-Dimethyl-2-oxo-butyl)-6-(4-methoxyphenyl)-3H-imidazo[4,5-b]pyridin-2-one], the concentration for half-maximal inhibition (IC50) in assay [1] (setting [4]) was found to be 1.63 µM.

In the case of `Cc1cc(Cn2c(=O)n(C)c3ncc(-c4cccc(C(F)(F)F)c4)cc32)no1` [Example 74, 3-Methyl-1-[(5-methylisoxazol-3-yl)methyl]-6-[3-(trifluoromethyl)phenyl]imidazo[4,5-b]pyridin-2-one], in assay [2], the IC50 was determined as 0.057 µM. Same read-out and setting: with `Cn1c(=O)n(CC(=O)NC2CC(F)(F)C2)c2cc(-c3cccc(C(F)(F)F)c3)cnc21` [Example 200, N-(3,3-Difluorocyclobutyl)-2-[3-methyl-2-oxo-6-[3-(trifluoromethyl)phenyl]imidazo[4,5-b]pyridin-1-yl]acetamide] the figure was 0.174 µM; with `CN(C)C(=O)Cn1c(=O)n(C)c2ncc(-c3ccc(CO)s3)cc21` [Example 91, 2-[6-[5-(Hydroxymethyl)-2-thienyl]-3-methyl-2-oxo-imidazo[4,5-b]pyridin-1-yl]-N,N-dimethyl-acetamide], 1.7 µM; with `O=c1[nH]c2ncc(-c3cccc(OC(F)(F)F)c3)cc2n1Cc1cncc(F)c1` [Example 307, 1-[(5-Fluoro-3-pyridyl)methyl]-6-[3-(trifluoromethoxy)phenyl]-3H-imidazo[4,5-b]pyridin-2-one], 0.088 µM.

Consider `Cc1csc(-c2cnc3[nH]c(=O)n(Cc4cc(C)on4)c3c2)c1` [Example 125, 1-[(5-Methylisoxazol-3-yl)methyl]-6-(4-methyl-2-thienyl)-3H-imidazo[4,5-b]pyridin-2-one], for which the IC50 in assay [2] amounted to 0.082 µM. Same read-out and setting: with `Cc1cc(-c2cnc3c(c2)n(Cc2ncccn2)c(=O)n3C)ccc1F` [Example 49, 6-(4-Fluoro-3-methyl-phenyl)-3-methyl-1-(pyrimidin-2-ylmethyl)imidazo[4,5-b]pyridin-2-one] the figure was 0.486 µM.

One may read the IC50 as the midpoint of a concentration-inhibition curve.

The values above are taken from patent US11759455B2, “Substituted 1H-imidazo[4,5-b]pyridin-2(3H)-ones and their use as GLUN2B receptor modulators” (JANSSEN PHARMACEUTICA NV, priority 2016, dated 2023).
